Results: patent US7122294B2, “Photoacid generators with perfluorinated multifunctional anions” (3M Innovative Properties Company, priority 2003, dated 2006)
Values joined by “and” are separate entries in the source; they are usually repeats but may differ in a detail not shown here. Equal values may be shown once.

Legend:
[1] = Volatility by vacuum distillation from 100% H2SO4; assay type: physicochemical
Description: This example describes an unsuccessful attempt to vacuum distill the difunctional perfluoroorganic disulfonic acid, HO3S(CF2)4SO3H, illustrating the very low volatility of this diacid compared to monofunctional perfluoroalkanesulfonic acids of even higher molecular weight, like C8F17SO3H. The dipotassium salt, KO3S(CF2)4SO3K (40.0 g) and 100% H2SO4 (241 g) were charged to a vacuum distillation apparatus comprising a 250 mL, three-necked flask equipped with a heating mantle, magnetic stirring bar, an insulated short path distillation head and a 100 mL receiver flask. The pot temperature and head temperature were continuously monitored with J-type thermocouple probes. […] The pressure was reduced to 3.6 Torr and the pot temperature raised to 178° C., but still there was no boiling or distillation. The pressure was reduced further and additional heat was applied to the pot to force distillation. Distillate eventually started to collect at a pot temperature of 196° C. and a pressure of 1.75 Torr. A total of 73.3 g of distillate was collected between 184–186° C. (head temperature) before the distillation was terminated. Since this represents 222% of the theoretical HO3S(CF2)4SO3H yield, it was surmised that the distillate was probably mostly sulfuric acid. The presence of significant H2SO4 in the distillate was confirmed by precipitation of BaSO4 upon treatment of an aqueous solution of the distillate with BaCl2.
The remaining pot retains were diluted in about 700 mL of water and treated with 350 mL of tributylamine with stirring. A white solid precipitate presumed to be Bu3NH+−O3S(CF2)4SO3^−Bu3NH^+ formed which was isolated by suction filtration washed with three portions of water and air-dried by suction to yield 44.07 g (66% of theory). […] Thus, even though the molecular weight of this monofunctional acid is 38% greater than that of HO3S(CF2)4SO3H, it is much more volatile and distills at much lower temperature than the difunctional acid. […]

[2] = Bio-elimination screening after a single oral dose; assay type: in vivo, male Sprague Dawley rats; conditions: for Total F concentration in Liver / Total F concentration in Serum: 30 mg/kg single oral dose; for parent compound recovered in the urine: within the first 28 hours post dose, 19F NMR; for bioelimination compared to PFOS: screenings in rats
Description: The objective of this study was to evaluate the potential for oral absorption, distribution, and serum and liver elimination rates of KO3SCF2CF2CF2CF2SO3K and LiO3SCF2CF2CF2COOLi in male Sprague Dawley rats after a single oral dose. Quantitation of fluorinated salt levels and potential metabolites in serum and liver were performed by total organic fluorine analysis.
21 male Sprague Dawley rats (Harlan), 6–8 weeks in age and weighing approximately 150–250 g were treated with a single dose of the test compound, prepared in propylene glycol (suspension of 6 mg/ml propylene glycol), via oral gavage at either 0 mg/kg (control) or 30 mg/kg body weight (Group 1) (3 animals per dose group per designated treatment period). […] Liver and serum samples were collected for total fluorine analysis on each of those days. All the specimens collected at necropsy were temporarily stored in at −70° C. A complete protocol for this study is available (Strategic Toxicology Lab Protocol Number ST-88). Urine samples were collected and analyzed by ^19F NMR on day one and day four (0–4, 4–24 and 76–100 hrs, respectively) post dose in order to determine the concentration of the respective perfluorinated anion.

[3] = Thermal gravimetric analysis (TGA), onset of thermal decomposition; assay type: physicochemical; conditions: under nitrogen, ramp 10° C. per minute
Description: TGA was performed on a Perkin-Elmer Instruments TGA Model 7 in an open platinum pan. The onset of thermal decomposition, Td, was taken as the thermal decomposition temperature of the photoacid generators and was determined under nitrogen atmosphere using a temperature ramp of 10° C. per minute. The onset temperature was determined by the intersection of tangents to the low temperature portion of the baseline and the first inflection point in the wt % vs. temperature curve.

[4] = Photo-DSC/DSC cationic curing activity of PAGs in ERL-4221; parameters: PDSC Peak Max / PDSC Induction Time: unit not given here
Description: (§1) Photo-DSC/DSC: Standard (hermetic) liquid sample pans were used. Sample size was kept in the 6 to 8 mg range. Samples were tested using a Dupont Photo-DSC/DSC instrument (available from DuPont, Wilmington, Del.). The light source was a 200 W Hg lamp that delivered about 60 mw/cm at the sample. Samples were exposed in open pans for 5 minutes to the light source at 30° C. then removed from the instrument, sealed and a standard DSC scan run at 10° C./minute to 300° C. A separate DSC experiment was carried out using a sealed sample pan and no prior light exposure to determine the dark reactivity of these PAGs. Comparison of the DSC traces before and after light exposure enables differentiation between the thermal reactivity of the PAGs (in the dark) and their photochemical activity.
(§2) This example describes photo-DSC/DSC experiments designed to quantitatively compare the relative cationic curing reactivities of PAGs of the present invention containing difunctional fluoroorganic sulfonate anions with related PAGs having identical cations and monofunctional perfluoroalkanesulfonate anions. Relative reactivities were measured in three different cationically polymerizable monomer systems, including two different types of epoxies and one vinyl ether.
(§3) The photo-DSC experiment provides information on the photo-cure speed at 30° C. as measured by the induction time (onset) and time to reach the peak maximum in the curing exotherm. […] The energy released under the curing exotherm is a measure of the extent of cure; larger values mean more cure has taken place during the light exposure. […] Comparison with the DSC traces recorded with no prior light exposure provides a measure of the increase in activity after photoactivation of the PAG.
(§4) General: Stock solutions of three cationically curable monomers were prepared as shown in Table 3 with 0.1% (w/w) isopropylthioxanthone (ITX). Epon 828 is a difunctional glycidyl ether epoxy from Shell, ERL-4221 is a difunctional cycloaliphatic epoxy from Union Carbide and VEX 5015 is a trifunctional vinyl ether from Allied Signal. Because of the low sensitivity of these compositions to room lights, all sample preparation was done with the lab lights on but the hood lights off. All PAGs were formulated at 1.0% by weight in the stock monomer/sensitizer solutions. Into a small aluminum pan was weighed 0.02 g of PAG and 0.04 g of propylene carbonate used to promote dissolution of the PAG in the monomer. The pan was heated briefly on a hot plate set at 100° C. to dissolve the PAG, then 2.0 g the stock monomer/sensitizer solution was added. The solution was briefly heated again on a hot plate set at 100° C. to allow complete mixing of the components, then the solution was allowed to cool to room temperature before using.

[5] = Photo-DSC/DSC cationic curing activity of PAGs in VEX 5015; parameters: PDSC Peak Max / PDSC Induction Time: unit not given here
Description: as §1, §2, §3, §4

[6] = Photo-DSC/DSC cationic curing activity of PAGs in Epon 828; parameters: PDSC Peak Max / PDSC Induction Time: unit not given here
Description: as §1, §2, §3, §4

[7] = ERL-4221, DSC scan after light exposure
[8] = ERL-4221, no prior light exposure
[9] = Epon 828, DSC scan after light exposure
[10] = Epon 828, no prior light exposure

O=S(=O)(O)C(F)(F)C(F)(F)C(F)(F)C(F)(F)S(=O)(=O)O [HO3S(CF2)4SO3H]
volatility: outcome of vacuum distillation ([1]; from 100% H2SO4, down to 1.75 Torr, pot temperature up to 196° C.): did not distill

O=C(O)C(F)(F)C(F)(F)C(F)(F)S(=O)(=O)O [LiO3SCF2CF2CF2CO2Li, LiO3S(CF2)3CO2Li]
Total F concentration in Liver ([2]; rat, Day 0): 0.5 ppm | Total F concentration in Serum ([2]; rat, Day 0): (ND) (ND = not detectable within limits of test (0.3 ppm)) | Total F concentration in Liver ([2]; rat, Day 1): ND (ND = not detectable within limits of test (0.3 ppm)) | Total F concentration in Serum ([2]; rat, Day 1): (ND) (ND = not detectable within limits of test (0.3 ppm)) | Total F concentration in Liver ([2]; rat, Day 4): ND (ND = not detectable within limits of test (0.3 ppm)) | Total F concentration in Serum ([2]; rat, Day 4): (ND) (ND = not detectable within limits of test (0.3 ppm)) | Total F concentration in Liver ([2]; rat, Day 8): ND (ND = not detectable within limits of test (0.3 ppm)) | Total F concentration in Serum ([2]; rat, Day 8): (ND) (ND = not detectable within limits of test (0.3 ppm)) | Total F concentration in Liver ([2]; rat, Day 14): ND (ND = not detectable within limits of test (0.3 ppm)) | Total F concentration in Serum ([2]; rat, Day 14): (ND) (ND = not detectable within limits of test (0.3 ppm)) | estimated half life of elimination via the urinary route ([2]; rat, single oral dose): less than 28 hours | parent compound recovered in the urine ([2]; rat, single oral dose): greater than 96% | bioelimination compared to PFOS [2]: more readily bioeliminate compared to PFOS

O=S(=O)([O-])C(F)(F)C(F)(F)N(C(F)(F)F)C(F)(F)C(F)(F)S(=O)(=O)[O-].c1ccc([S+](c2ccccc2)c2ccccc2)cc1.c1ccc([S+](c2ccccc2)c2ccccc2)cc1 [PAG-3, [(C6H5)3S^+]2CF3N(CF2CF2SO3^−)2]
onset of thermal decomposition (TGA) [3]: 411 °C

CC(C)(C)c1ccc([I+]c2ccc(C(C)(C)C)cc2)cc1.CC(C)(C)c1ccc([I+]c2ccc(C(C)(C)C)cc2)cc1.O=S(=O)([O-])C(F)(F)C(F)(F)C(F)(F)S(=O)(=O)[O-] [PAG1, [(p-(CH3)3C—C6H4)2I^+]2-O3S(CF2)3SO3—]
PDSC Energy ([4]; ERL-4221, 1.0% PAG, 0.1% ITX, light exposure 5 min at 30° C.): 7 J/g | DSC after PDSC Onset Temp ([4]; ERL-4221, DSC scan 10° C./minute after light exposure): 60 C.° | DSC after PDSC Energy [4, 7]: 582 J/g | DSC after PDSC Peak Max [4, 7]: 148 °C | PDSC Induction Time ([4]; ERL-4221, light exposure at 30° C.): 15.1 | DSC Only (dark) Energy [4, 8]: 565 J/g | DSC Only (dark) Onset Temp [4, 8]: 150 C.° | DSC Only (dark) Peak Max [4, 8]: 203 | PDSC Peak Max ([4]; ERL-4221, time to peak maximum of curing exotherm at 30° C.): 24 | onset of thermal decomposition (TGA) [3]: 224 °C | PDSC Energy ([5]; VEX 5015, 1.0% PAG, 0.1% ITX, light exposure 5 min at 30° C.): 209 J/g | DSC after PDSC Energy ([5]; VEX 5015, DSC scan after light exposure): 54 J/g | PDSC Induction Time ([5]; VEX 5015, light exposure at 30° C.): 1.6 | DSC Only (dark) Onset Temp ([5]; VEX 5015, no prior light exposure, two values = two exotherms): 100, C.° and 160 C.° | PDSC Peak Max ([5]; VEX 5015, time to peak maximum of curing exotherm at 30° C.): 4.2 | PDSC Energy ([6]; Epon 828, 1.0% PAG, 0.1% ITX, light exposure 5 min at 30° C.): 8 J/g | DSC after PDSC Onset Temp ([6]; Epon 828, DSC scan 10° C./minute after light exposure): 100 C.° | DSC after PDSC Energy [6, 9]: 553 J/g | DSC after PDSC Peak Max [6, 9]: 192 °C | PDSC Induction Time ([6]; Epon 828, light exposure at 30° C.): 16.2 | DSC Only (dark) Energy [6, 10]: 576 J/g | DSC Only (dark) Onset Temp [6, 10]: 180 C.° | DSC Only (dark) Peak Max [6, 10]: 230 °C | PDSC Peak Max ([6]; Epon 828, time to peak maximum of curing exotherm at 30° C.): 27

O=S(=O)([O-])C(F)(F)C(F)(F)C(F)(F)C(F)(F)S(=O)(=O)[O-].[K+].[K+] [KO3SCF2CF2CF2CF2SO3K, KO3S(CF2)4SO3K]
Total F concentration in Liver ([2]; rat, Day 0): ND (ND = not detectable within limits of test (0.3 ppm)) | Total F concentration in Serum ([2]; rat, Day 0): (ND) (ND = not detectable within limits of test (0.3 ppm)) | Total F concentration in Liver ([2]; rat, Day 1): 0.6 ppm | Total F concentration in Serum ([2]; rat, Day 1): (ND) (ND = not detectable within limits of test (0.3 ppm)) | Total F concentration in Liver ([2]; rat, Day 4): ND (ND = not detectable within limits of test (0.3 ppm)) | Total F concentration in Serum ([2]; rat, Day 4): (ND) (ND = not detectable within limits of test (0.3 ppm)) | Total F concentration in Liver ([2]; rat, Day 8): ND (ND = not detectable within limits of test (0.3 ppm)) | Total F concentration in Serum ([2]; rat, Day 8): (ND) (ND = not detectable within limits of test (0.3 ppm)) | Total F concentration in Liver ([2]; rat, Day 14): ND (ND = not detectable within limits of test (0.3 ppm)) | Total F concentration in Serum ([2]; rat, Day 14): (ND) (ND = not detectable within limits of test (0.3 ppm)) | parent compound recovered in the urine ([2]; rat, single oral dose): 11% | bioelimination compared to PFOS [2]: more readily bioeliminate compared to PFOS

O=S(=O)(O)C(F)(F)C(F)(F)C(F)(F)C(F)(F)C(F)(F)C(F)(F)C(F)(F)C(F)(F)F [C8F17SO3H]
head temperature of distillation ([1]; 8.00 Torr, from 100% H2SO4): 135–142 °C | pot temperature of distillation ([1]; 8.00 Torr, from 100% H2SO4): 148–157 °C
